Assay results reported in PubChem BioAssay (NCI).
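48-hour exposure; five concentrations; linearly interpolated endpoints. The concentration for 50% growth inhibition is given as GI50. The concentration for full growth arrest is given as TGI.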

Assays:
Experiment in all cases: inhibition of tumour cell growth, NCI panel, 48 h
LOX IMVI melanoma = tested on: LOX IMVI melanoma
A549 NSCLC = tested on: A549 NSCLC
KM12 colon = tested on: KM12 colon
HCT-116 colon = tested on: HCT-116 colon
SK-MEL-2 melanoma = tested on: SK-MEL-2 melanoma
SK-MEL-5 melanoma = tested on: SK-MEL-5 melanoma
NCI-H226 lung = tested on: NCI-H226 lung
DU-145 prostate = tested on: DU-145 prostate
RPMI-8226 leukemia = tested on: RPMI-8226 leukemia
U251 CNS = tested on: U251 CNS
NCI-H23 lung = tested on: NCI-H23 lung
786-0 renal = tested on: 786-0 renal
HS 578T breast = tested on: HS 578T breast
CCRF-CEM leukemia = tested on: CCRF-CEM leukemia
COLO 205 colon = tested on: COLO 205 colon
SN12C renal = tested on: SN12C renal
SNB-75 CNS = tested on: SNB-75 CNS
HT29 colon = tested on: HT29 colon
MDA-MB-231 breast = tested on: MDA-MB-231 breast
ACHN renal = tested on: ACHN renal
SK-MEL-28 melanoma = tested on: SK-MEL-28 melanoma
NCI/ADR-RES ovarian = tested on: NCI/ADR-RES ovarian
SF-295 CNS = tested on: SF-295 CNS
EKVX NSCLC = tested on: EKVX NSCLC
PC-3 prostate = tested on: PC-3 prostate
MDA-MB-435 = tested on: MDA-MB-435
SK-OV-3 ovarian = tested on: SK-OV-3 ovarian
HCC-2998 colon = tested on: HCC-2998 colon
UACC-257 melanoma = tested on: UACC-257 melanoma
IGROV1 ovarian = tested on: IGROV1 ovarian
A498 renal = tested on: A498 renal
OVCAR-3 ovarian = tested on: OVCAR-3 ovarian
OVCAR-4 ovarian = tested on: OVCAR-4 ovarian
BT-549 breast = tested on: BT-549 breast
T-47D breast = tested on: T-47D breast
TK-10 renal = tested on: TK-10 renal
SNB-19 CNS = tested on: SNB-19 CNS
SW-620 colon = tested on: SW-620 colon
SF-268 CNS = tested on: SF-268 CNS
HCT-15 colon = tested on: HCT-15 colon
CAKI-1 renal = tested on: CAKI-1 renal
SF-539 CNS = tested on: SF-539 CNS
NCI-H522 lung = tested on: NCI-H522 lung
OVCAR-5 ovarian = tested on: OVCAR-5 ovarian
UACC-62 melanoma = tested on: UACC-62 melanoma
OVCAR-8 ovarian = tested on: OVCAR-8 ovarian
NCI-H460 lung = tested on: NCI-H460 lung
RXF 393 renal = tested on: RXF 393 renal
M14 melanoma = tested on: M14 melanoma
MALME-3M melanoma = tested on: MALME-3M melanoma
HOP-62 NSCLC = tested on: HOP-62 NSCLC
UO-31 renal = tested on: UO-31 renal
SR leukemia = tested on: SR leukemia
MCF7 breast = tested on: MCF7 breast
HOP-92 NSCLC = tested on: HOP-92 NSCLC
K-562 leukemia = tested on: K-562 leukemia
MOLT-4 leukemia = tested on: MOLT-4 leukemia

Nc1ccc(C(=O)NN2C(=O)[C@H](Cl)C2c2ccc(Cl)cc2)cc1 (some centres not stated)
GI50 (LOX IMVI melanoma): 0.113 µM | TGI (LOX IMVI melanoma): 0.233 µM | TGI (A549 NSCLC): 8.49 µM | TGI (KM12 colon): 2.99 µM | TGI (HCT-116 colon): 0.476 µM | TGI (SK-MEL-2 melanoma): 4.37 µM | TGI (SK-MEL-5 melanoma): 4.27 µM | TGI (NCI-H226 lung): 2.65 µM | TGI (DU-145 prostate): 4.06 µM | TGI (RPMI-8226 leukemia): 5.32 µM | TGI (U251 CNS): 2.26 µM | TGI (NCI-H23 lung): 2.34 µM | TGI (786-0 renal): 2.6 µM | TGI (HS 578T breast): 4.02 µM | GI50 (CCRF-CEM leukemia): 0.31 µM | TGI (CCRF-CEM leukemia): 1.41 µM | TGI (COLO 205 colon): 4.14 µM | TGI (SN12C renal): 2.83 µM | TGI (SNB-75 CNS): 0.797 µM | TGI (HT29 colon): 0.61 µM | TGI (MDA-MB-231 breast): 3.55 µM | TGI (ACHN renal): 2.48 µM | TGI (SK-MEL-28 melanoma): 1.8 µM | TGI (NCI/ADR-RES ovarian): 3.83 µM | TGI (SF-295 CNS): 9.31 µM | TGI (EKVX NSCLC): 12.8 µM | TGI (PC-3 prostate): 3.2 µM | TGI (MDA-MB-435): 4.16 µM | TGI (SK-OV-3 ovarian): 4.27 µM | TGI (HCC-2998 colon): 3.01 µM | TGI (UACC-257 melanoma): 3.63 µM | TGI (IGROV1 ovarian): 4.54 µM | GI50 (A498 renal): 1.62 µM | TGI (A498 renal): 3.21 µM | TGI (OVCAR-3 ovarian): 2.55 µM | TGI (OVCAR-4 ovarian): > 100 µM | GI50 (BT-549 breast): 1.95 µM | TGI (BT-549 breast): 4.9 µM | TGI (T-47D breast): 3.88 µM | TGI (TK-10 renal): 2.57 µM | TGI (SNB-19 CNS): 3.69 µM | TGI (SW-620 colon): 4.96 µM | TGI (SF-268 CNS): 1.92 µM | TGI (HCT-15 colon): 2.79 µM | TGI (CAKI-1 renal): 2.94 µM | TGI (SF-539 CNS): 3.6 µM | TGI (NCI-H522 lung): > 100 µM | TGI (OVCAR-5 ovarian): 8.23 µM | TGI (UACC-62 melanoma): 3.69 µM | TGI (OVCAR-8 ovarian): 3.68 µM | TGI (NCI-H460 lung): > 100 µM | TGI (RXF 393 renal): > 100 µM | TGI (M14 melanoma): 3.11 µM | TGI (MALME-3M melanoma): 4.13 µM | TGI (HOP-62 NSCLC): 3.12 µM | TGI (UO-31 renal): 4.35 µM

C[CH2][Pb]([CH2]C)([CH2]C)[O]C(=O)COc1ccccc1
GI50 (LOX IMVI melanoma): 1.4 µM | TGI (LOX IMVI melanoma): 3.22 µM | GI50 (A549 NSCLC): 1.82 µM | TGI (A549 NSCLC): 5.65 µM | GI50 (KM12 colon): 1.51 µM | TGI (KM12 colon): 5.84 µM | GI50 (HCT-116 colon): 1.44 µM | TGI (HCT-116 colon): 2.9 µM | GI50 (SK-MEL-2 melanoma): 0.382 µM | TGI (SK-MEL-2 melanoma): 1.73 µM | GI50 (SK-MEL-5 melanoma): 1.19 µM | TGI (SK-MEL-5 melanoma): 2.56 µM | GI50 (NCI-H226 lung): 1.83 µM | TGI (NCI-H226 lung): 6.04 µM | GI50 (DU-145 prostate): 2.43 µM | TGI (DU-145 prostate): 10.7 µM | GI50 (RPMI-8226 leukemia): 1.03 µM | TGI (RPMI-8226 leukemia): 3.12 µM | GI50 (U251 CNS): 1.74 µM | TGI (U251 CNS): 3.89 µM | GI50 (SR leukemia): 0.595 µM | TGI (SR leukemia): 3.88 µM | GI50 (MCF7 breast): 1.77 µM | TGI (MCF7 breast): 9.34 µM | GI50 (786-0 renal): 2.13 µM | TGI (786-0 renal): 5.72 µM | GI50 (HS 578T breast): 1.53 µM | TGI (HS 578T breast): 5.2 µM | GI50 (CCRF-CEM leukemia): 1.23 µM | TGI (CCRF-CEM leukemia): 4.86 µM | GI50 (COLO 205 colon): 1.96 µM | TGI (COLO 205 colon): 4.51 µM | GI50 (SN12C renal): 2.39 µM | TGI (SN12C renal): 9.61 µM | GI50 (SNB-75 CNS): 1.24 µM | TGI (SNB-75 CNS): 11.3 µM | GI50 (HT29 colon): 1.74 µM | TGI (HT29 colon): 4.61 µM | GI50 (MDA-MB-231 breast): 1.63 µM | TGI (MDA-MB-231 breast): 4.84 µM | GI50 (HOP-92 NSCLC): 0.39 µM | TGI (HOP-92 NSCLC): 4.1 µM | GI50 (ACHN renal): 2.51 µM | TGI (ACHN renal): 11.3 µM | GI50 (SK-MEL-28 melanoma): 0.784 µM | TGI (SK-MEL-28 melanoma): 11 µM | GI50 (NCI/ADR-RES ovarian): 1.97 µM | TGI (NCI/ADR-RES ovarian): 9.24 µM | GI50 (SF-295 CNS): 1.51 µM | TGI (SF-295 CNS): 3.13 µM | GI50 (MDA-MB-435): 0.214 µM | TGI (MDA-MB-435): 0.502 µM | GI50 (SK-OV-3 ovarian): 2.08 µM | TGI (SK-OV-3 ovarian): 6.1 µM | GI50 (HCC-2998 colon): 1.65 µM | TGI (HCC-2998 colon): 3.85 µM | GI50 (UACC-257 melanoma): 0.557 µM | TGI (UACC-257 melanoma): 4.75 µM | GI50 (IGROV1 ovarian): 1.64 µM | TGI (IGROV1 ovarian): 6.52 µM | GI50 (A498 renal): 1.75 µM | TGI (A498 renal): 6.61 µM | GI50 (OVCAR-3 ovarian): 1.7 µM | TGI (OVCAR-3 ovarian): 5.27 µM | GI50 (K-562 leukemia): 1.47 µM | TGI (K-562 leukemia): 6.64 µM | GI50 (OVCAR-4 ovarian): 0.949 µM | TGI (OVCAR-4 ovarian): 4.96 µM | GI50 (BT-549 breast): 1.78 µM | TGI (BT-549 breast): 6.4 µM | GI50 (T-47D breast): 0.757 µM | TGI (T-47D breast): 8.82 µM | GI50 (TK-10 renal): 1.63 µM | TGI (TK-10 renal): 5.21 µM | GI50 (SNB-19 CNS): 2.36 µM | TGI (SNB-19 CNS): 11.3 µM | GI50 (SW-620 colon): 0.641 µM | TGI (SW-620 colon): 2.47 µM | GI50 (SF-268 CNS): 1.67 µM | TGI (SF-268 CNS): 4.54 µM | GI50 (HCT-15 colon): 1.98 µM | TGI (HCT-15 colon): 11.6 µM | GI50 (CAKI-1 renal): 1.95 µM | TGI (CAKI-1 renal): 6.18 µM | GI50 (SF-539 CNS): 1.81 µM | TGI (SF-539 CNS): 4.63 µM | GI50 (NCI-H522 lung): 0.562 µM | TGI (NCI-H522 lung): 2.11 µM | GI50 (OVCAR-5 ovarian): 1.74 µM | TGI (OVCAR-5 ovarian): 4.61 µM | GI50 (OVCAR-8 ovarian): 1.76 µM | TGI (OVCAR-8 ovarian): 5.68 µM | GI50 (NCI-H460 lung): 2.21 µM | TGI (NCI-H460 lung): 5.94 µM | GI50 (RXF 393 renal): 1.05 µM | TGI (RXF 393 renal): 3.26 µM | GI50 (M14 melanoma): 1.39 µM | TGI (M14 melanoma): 6.67 µM | GI50 (MALME-3M melanoma): 0.441 µM | TGI (MALME-3M melanoma): 7.11 µM | GI50 (MOLT-4 leukemia): 1.95 µM | TGI (MOLT-4 leukemia): 4.63 µM | GI50 (HOP-62 NSCLC): 1.64 µM | TGI (HOP-62 NSCLC): 3.76 µM | GI50 (UO-31 renal): 1.05 µM | TGI (UO-31 renal): 3.7 µM
